Laboratory results from the METLIN SMRT retention time set (Domingo-Almenara et al. 2019).

test: gradient 5% acetonitrile 3 min, to 50% in 2 min, to 85% in 15 min, held 3 min, 100 µL/min; settings: column: Zorbax Extend-C18 2.1 x 50 mm; eluents: water / acetonitrile, 0.1% formic acid
Summary of the method: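 Pure standards were run in mixtures of ~100 molecules by HPLC coupled to a quadrupole time-of-flight mass spectrometer. The column was a Zorbax Extend-C18 (2.1 × 50 mm, 1.8 μm) at 100 μL/min, with water and acetonitrile each containing 0.1% formic acid, in positive and negative ionization mode. Dead and dwell volumes were 40 μL and 900 μL. Retention time was taken from computationally picked adduct peaks, each manually inspected, with data collected over 3 months.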

| SMILES | RP-LC retention time |
| --- | --- |
| COCC(=O)N1CCC2(CCC2O)CC1 (centres undefined) | 577 s |
| O=C(Cn1c(=O)c2cccn2c2ccc(F)cc21)NCCc1ccco1 | 774 s |
| Cc1cc(N2CCN(c3ccccn3)CC2)n2nc(-c3ccc(Cl)cc3)c(C)c2n1 | 649 s |
| O=C(Cn1nc2n(c1=O)CCCCC2)NCc1ccccc1Br | 705 s |
| O=C(c1ccc(N2CCCCS2(=O)=O)cc1)N1CCN(C(=O)c2ccco2)CC1 | 609 s |
| Cc1cnc(C2CN(C(=O)c3ccnn3C)C2)n1CC1CC1 | 568 s |
| CCn1cc(-c2nc(-c3ccccc3OC)no2)c(=O)c2cc(F)ccc21 | 820 s |
| O=C(Nc1cnc(-c2ccccc2)nc1)c1ccc(Br)o1 | 979 s |
| CC(NC(=O)C1=CCN(Cc2ccc(F)cc2)CC1)c1ccccc1 (centres undefined) | 640 s |
| CC1CCCN(C(=O)CN(C)S(=O)(=O)c2ccc3c(c2)CCCC(=O)N3)C1 (centres undefined) | 718 s |
| CS(=O)(=O)N1CCC(C(=O)Nc2ccc(C(F)(F)F)cc2)Oc2ccccc21 (centres undefined) | 1030 s |
| CCN1CCN(S(=O)(=O)c2cccc(-c3nnc(-c4ccc(C)cc4)o3)c2)CC1 | 682 s |
| COc1ccc(Nc2c(-c3ccc(Cl)cc3)nc3ncccn23)cc1OC | 748 s |
| CS(=O)(=O)N1CCC(C(=O)NCc2cccc(Oc3ccc(F)cc3)c2)CC1 | 767 s |
| COc1ncccc1CN(C)C(=O)COc1ccccc1 | 568 s |
| COc1ccc(NC(=O)C2CC(=O)N(c3ccc4c(c3)CCN4C(=O)C3CC3)C2)cc1F (centres undefined) | 770 s |
| CCn1c(=O)c2ccccc2n(Cc2nc(-c3cccc(C)c3)no2)c1=O | 1070 s |
| Cc1c2c(nn1-c1ccc(SCc3ccccc3F)nn1)CCC2 | 1270 s |
| Cc1ccsc1C(=O)Nc1ccc2c(c1)CCC(=O)N2C | 733 s |
| Cc1nn(C)c(C)c1S(=O)(=O)N1CCN(C(=O)CCc2c[nH]c3ccccc23)CC1 | 708 s |
| CN1CC(=O)NC(c2ccccc2Cl)C1=O (centres undefined) | 541 s |
| CN(C)CC(=O)N1CCc2[nH]nc(-c3ccc(F)cc3)c2C1 | 588 s |
| CC1OC(O[C@@H]2C=C3CC[C@@H]4[C@H](CC[C@]5(C)[C@@H](c6ccc(=O)oc6)CC[C@]45O)[C@@]3(C)CC2)C(O)C(O)C1O (some centres undefined) | 691 s |
| CN1C(=O)COc2cc(-c3noc(C(=O)NC4CC4)n3)ccc21 | 718 s |
| CC(C)n1c(=O)oc2cc(-c3noc(CNC(=O)Cc4ccccc4)n3)ccc21 | 842 s |
| Cc1ccccc1NC(=O)CSc1nc(=O)n(CCN(C)C)c2c1CCC2 | 610 s |

| SMILES | RP-LC retention time |
| --- | --- |
| CCc1ccc(CNC(=O)C2(c3ccc(NC(C)=O)cc3)CCC2)cc1 | 827 s |
| CCn1ncc(Cl)c1C(=O)N1CCCC1c1ccccc1F (centres undefined) | 922 s |
| Cc1ccc(Nc2c(-c3ccc(Cl)cc3)nc3cnccn23)c(C)c1 | 1080 s |
| Cc1ccc(-c2ccc3nn(Cc4nc(-c5cccc(C(F)(F)F)c5)no4)c(=O)n3n2)cc1 | 1090 s |
| CCOc1cccc(-c2noc(Cn3c(=O)n(-c4cccc(C)c4)c(=O)c4sccc43)n2)c1 | 1060 s |
| COC(=O)c1c(-c2ccccc2)noc1NCc1cccc(OC)c1 | 677 s |
| CSc1cccc(NC(=O)Cn2cccc(-c3nc(-c4ccc(Br)cc4)no3)c2=O)c1 | 1050 s |
| Cn1c(N2CCN(C(=O)c3ccccc3Br)CC2)cc(=O)n(C)c1=O | 668 s |
| O=C(Nc1ccccc1)N1CCC2(CC1)N(C1CCCC1)C(=O)CS2=O (centres undefined) | 692 s |
| O=C(Cn1cnc2nc3c(cc2c1=O)CCCC3)Nc1ccc(Cl)cc1 | 761 s |
| O=C(Cn1cnc2ccccc2c1=O)N[C@@H](Cc1ccccc1)C(=O)O | 671 s |
| CCOC(=O)C1CCN(C(=O)C2CCN(c3ccc(N4CCCC4)nn3)CC2)CC1 | 628 s |
| O=C(CCc1c(-c2ccc(Br)cc2)nc2ccccn12)NC1CCCCC1 | 702 s |
| O=C(Nc1cccnc1)C1CCCN(S(=O)(=O)c2cc(-c3noc(C4CCC4)n3)cs2)C1 (centres undefined) | 893 s |
| CN(c1ccccc1)S(=O)(=O)c1ccc(C(=O)Nc2nnc(C3=COCCO3)o2)cc1 | 744 s |
| COc1cc(=O)c(C(=O)Nc2cccc(SC)c2)nn1-c1cccc(F)c1 | 805 s |
| O=C(c1ccc([N+](=O)[O-])o1)N1CCN(Cc2csc(-c3ccccc3)n2)CC1 | 601 s |
| Clc1ccc2nc(-c3ccc(N4CCOCC4)cc3)c(Nc3ccc4c(c3)OCCO4)n2c1 | 694 s |
| COc1ccc(Cl)cc1NC(=O)Cn1c(C)ncc(C(=O)NC2CCCC2)c1=O | 791 s |
| CCC(C(=O)Nc1ccc(C(C)=O)cc1)n1cnc2nc3c(cc2c1=O)CCCC3 (centres undefined) | 748 s |
| O=C(Cn1nc2c(N3CCCCCC3)nccn2c1=O)NCCC1=CCCCC1 | 784 s |
| Cc1ccc(C)c(N2CCN(C(=O)c3csc(C(=O)NC4CC4)n3)CC2)c1 | 968 s |
| Cc1ccc(CNC(=O)CN2CCN(C(=O)Nc3ccc(F)cc3)CC2=O)o1 | 695 s |
| CN1C(=O)C2CCCCN2c2ccc(C(=O)NCCCc3ccccc3)cc21 (centres undefined) | 939 s |
| O=C(NCc1ccc(F)cc1Cl)C1CCc2nc(N3CCOCC3)ncc2C1 (centres undefined) | 768 s |
| CC1Cn2cc(C(=O)NCCN3CCN(C)CC3)c(=O)c3c(Cl)ccc(c32)O1 (centres undefined) | 590 s |

The next lines start with the values.

| RP-LC retention time | SMILES |
| --- | --- |
| 900 s | Cc1ccc2c(c1)N(S(C)(=O)=O)CCC(C(=O)NCc1ccccc1C)O2 (centres undefined) |
| 1070 s | CSc1cccc(NC(=O)Cn2cccc2-c2nc(-c3ccccc3)no2)c1 |
| 717 s | O=C([C@H]1C[C@@H](F)CN1S(=O)(=O)c1cccc(Cl)c1)N1CCOCC1 |
| 856 s | COc1cc(NS(=O)(=O)c2ccc(-c3c(C)noc3C)cc2)cc(OC)c1OC |
| 1140 s | CCn1ccc(C(=O)Nc2cc(Cl)ccc2Cl)n1 |
| 630 s | COc1ccc(-c2noc(-c3ccc(N4CCN(C)CC4)nn3)n2)cc1 |
| 885 s | Cc1cc(=O)n(CC(=O)Nc2ccc(Br)cc2)c(N2CCc3ccccc3C2)n1 |
| 797 s | CCOC(=O)Cc1csc(NC(=O)c2cc(=O)c(OCc3ccccc3)c[nH]2)n1 |
| 900 s | Cc1cc(N2CCC(NS(=O)(=O)c3ccccc3F)C2=O)ccc1F (centres undefined) |
| 1060 s | COc1cccc(-c2cc3c(=O)n(CC(O)c4ccc(C(C)C)cc4)ccn3n2)c1 (centres undefined) |
| 982 s | COc1ccc(C)cc1NC(=O)C(=O)c1ccc[nH]1 |
| 1020 s | Cc1ccc(NC(=O)C2CCN(S(=O)(=O)c3cc(-c4noc(C5CCC5)n4)cs3)CC2)cc1 |
| 1430 s | CCc1cccc(NC(=O)c2c(O)c3cccnc3n(-c3ccccc3)c2=O)c1 |
| 1130 s | CCn1nnc(NCc2ccc(-c3ccc(Cl)cc3Cl)o2)n1 |
| 569 s | O=C1CN(C(=O)c2cnccn2)c2ccccc2N1 |
| 1010 s | CN1c2cc(C(=O)Nc3ccc(OC(F)(F)F)cc3)ccc2C(=O)N2CCCCC21 (centres undefined) |
| 660 s | CCOC(=O)CC(=O)Nc1cc2c(cc1N1CCOCC1)n(C)c(=O)n2C |
| 634 s | Cc1sc2cc(C(=O)NCC3CC3)[nH]c2c1CN1CCCCC1 |
| 683 s | O=C(CCc1c(-c2ccccc2)nc2ccccn12)Nc1ccccc1Br |

| RP-LC retention time | SMILES |
| --- | --- |
| 912 s | COc1ccc(CN2CC(F)(F)C[C@H]2c2nnc(-c3cnccn3)o2)cc1C |
| 819 s | N#Cc1cccc(C(=O)NC2CCCC(OC(=O)Nc3ccccc3)C2)c1 (centres undefined) |
| 685 s | COc1ccc(-c2noc(C3(NC(=O)c4ccc(F)c(Cl)c4)CCCCC3)n2)cc1 |
| 548 s | O=C(CCC1CCN(c2cc(NC3CC3)ncn2)CC1)NCc1cccnc1 |
| 739 s | CCC(=O)Nc1nnc(SCc2nnc(-c3ccccc3)o2)s1 |
| 563 s | COC[C@@H]1CN(c2cnccn2)C[C@H]1C(=O)NCc1cc(C)nn1C |
| 899 s | Cc1noc(-c2ccc(OC3CN(C(=O)C(C)Oc4ccccc4)C3)cc2)n1 (centres undefined) |
| 888 s | CCOc1ccc(OCC)c(NC(=O)C2CCN(S(=O)(=O)c3cn(C(C)C)cn3)CC2)c1 |
| 737 s | O=C(c1ccc(-c2cccs2)nc1)N1CCCC1 |
| 623 s | Cc1ccc2cc(CCC(=O)NCCCN3CCCC3=O)c(=O)[nH]c2c1 |
| 960 s | CCc1ccccc1NS(=O)(=O)c1ccc(-c2nnc(C3CCC3)o2)o1 |
| 644 s | Cn1nc2c(c1NC(=O)Cc1ccc3c(c1)OCO3)CCC2 |
| 1190 s | Cc1sc(-c2nc(C(C)C)cs2)cc1S(=O)(=O)NCc1ccccc1 |
| 883 s | CC1=C(c2cccc(Cl)c2)S(=O)(=O)N=C1N1CCCN(C(=O)NC(C)(C)C)CC1 |
| 907 s | O=C(Nc1ccnn1Cc1ccccc1)c1cc(=O)c2cc(Br)ccc2o1 |
| 572 s | CC(=O)Nc1ccc(NC(=O)[C@H]2C[C@H]3CCCN3[C@@]23C(=O)N(C)c2ccccc23)cc1 |
| 988 s | Cc1ccc(S(=O)(=O)N2CCC(n3cnc4ccc(C)cc4c3=O)CC2)c(C)c1 |
| 832 s | O=C(Nc1ccc2c(c1)C(=O)N1CCCCC1CCO2)Nc1ccccc1C(F)(F)F (centres undefined) |
